Test results published in patent publication US8808992B2, “SHOC2 mutations causing noonan-like syndrome with loose anagen hair” (Icahn School of Medicine at Mount Sinai, priority 2009, dated 2014).

Biological target: T1, NMT (Homo sapiens, UniProt P30419)
T1 construct: host or cells: Cos-1
T1 sequence (P30419 1-496): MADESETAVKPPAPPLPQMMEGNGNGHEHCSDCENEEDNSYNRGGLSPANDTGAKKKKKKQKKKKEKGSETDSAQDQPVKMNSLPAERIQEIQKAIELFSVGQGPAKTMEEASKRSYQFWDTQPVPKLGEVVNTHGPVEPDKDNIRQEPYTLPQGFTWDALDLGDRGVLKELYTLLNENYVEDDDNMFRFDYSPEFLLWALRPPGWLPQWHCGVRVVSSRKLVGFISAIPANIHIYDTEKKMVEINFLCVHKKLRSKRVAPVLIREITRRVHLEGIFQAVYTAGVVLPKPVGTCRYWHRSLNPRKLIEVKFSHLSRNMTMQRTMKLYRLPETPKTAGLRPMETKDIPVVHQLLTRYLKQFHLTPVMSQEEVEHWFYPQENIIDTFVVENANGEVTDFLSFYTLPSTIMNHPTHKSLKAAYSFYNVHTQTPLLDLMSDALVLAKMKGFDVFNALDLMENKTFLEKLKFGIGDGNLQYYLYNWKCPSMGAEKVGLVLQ
Test: Membrane targeting of V5-tagged SHOC2^S2G in Cos-1 cells treated with an NMT inhibitor (confocal laser scanning microscopy)
Type: cell-based, African green monkey
Procedure: FIG. 8. Myristoylation is required for membrane targeting of the SHOC2^S2G mutant. […] Confocal laser scanning microscopy was performed using anti-V5 monoclonal antibody, followed by Alexa Fluor-594 goat anti-mouse antibody (red), while actin cytoskeleton was detected by Alexa Fluor 488-phalloidin (green). Nuclei are visualized by DAPI staining (blue). Co-localization areas were detected in yellow. Images represent single optical sections representative of >50 transfected cells observed in each experiment. Bars indicate 20 μm.
N-myristoylation facilitates anchoring of proteins to intracellular membranes. To explore whether it conferred membrane targeting to mutant SHOC2, the subcellular localization of tagged SHOC2 proteins was analyzed in Cos-1 cells (FIG. 2b and FIG. 6). Confocal laser microscopy analysis documented that SHOC2^wt was uniformly distributed in the cytoplasm and nucleus in starved cells but was restricted to the nucleus following EGF stimulation, implying an unexpected role for this protein in signal transduction. […]
In silico analysis of protein N-myristoylation was performed using Myristoylator (http://www.expasy.org/tools/myristoylator/), TermiNator (http://www.isv.cnrs-gif.fr/terminator3/index.html) and NMT (http.//mendel.imp.ac.at/sat/myristate/index.html) software. […] N-myristoylation was evaluated by [^3H]myristic acid (30 μCi/ml) incorporation as described elsewhere^26. […]

## CCCCCCCCCCCCC(O)C(=O)O (centres unmarked) [2-hydroxymyristic acid]
Cos-1 cells treated with 200 μM (middle) and 300 μM (bottom), compared with untreated cells
  membrane targeting of V5-tagged SHOC2^S2G: progressively lost
Cos-1 cells, treatment at varying doses (FIG. 8)
  SHOC2^S2G's membrane localization: reduced or abolished
